In patent EP4744649A1, “SUSTAINED-RELEASE INJECTABLE COMPOSITION FOR TREATING OR PREVENTING NEUROLOGICAL DISORDERS, AND METHOD FOR PREPARING SAME” (Inventage Lab Inc., priority 2023, dated 2025):

Key:
[1] = system: PTZ-induced seizure rat model; test: PTZ (pentylenetetrazole)-induced epileptic seizure model: seizure intensity, grade distribution, mortality; assay type: in vivo, rats; conditions: for seizure-induced mortality: 10 animals; for seizure intensity: 60 mg/head IP on D1 and D14 (G2)
Procedure: In order to evaluate the seizure-suppressing effect of administration of the microparticles of the present invention in an epilepsy-induced model, administration groups were set up as follows.
G3 and G4 were administered to rats at different doses using the above-described Example 7.
(§1) After the completion of acclimatization, the rats were divided into groups. On day 1 (D1), the test substances G1 to G4 were administered intraperitoneally and subcutaneously, and 30 minutes later, PTZ (pentylenetetrazole, Sigma, USA) dissolved in 0.9% sterile saline was administered intraperitoneally at a dose of 37.5 mg/kg to induce epileptic seizures. In the normal group, only the same amount of saline was administered. Then, PTZ was repeatedly administered at time points D2, D3, D5, D7, D14, D21, and D28 to induce epileptic seizures. The intensity of the seizures was graded and evaluated for 30 minutes immediately after PTZ administration at each time point according to the following criteria: [Table 7]

[2] = Body weight change in the PTZ seizure study; assay type: in vivo, rats; conditions: 60 mg/head IP (G2); difference not statistically significant
Procedure: as §1
During the test period, body weight continued to increase in all the groups without decrease.

## C=C(C)[C@@H]1CCC(C)=C[C@H]1c1c(O)cc(CCCCC)cc1O [CBD solution, cannabidiol]
[1]; 60 mg/head IP (G2), until week 3
  seizure-induced mortality: no deaths occurred
[1]; 60 mg/head IP (G2), week 4
  seizure-induced mortality: three animals died
  individuals with grade-5 seizures: more than half of individuals
[1]; 60 mg/head IP (G2), week 2, at the time of additional administration
  individuals with severe seizures: 10%
[1]; day 1, stages 0 to 6
  seizure intensity: 2.4 grade
[1]; week 1
  seizure intensity: 3.9 grade
[1]; week 2, after additional administration
  seizure intensity: 2.9 grade
[1]; weeks 3 and 4
  seizure intensity: 4.9 grade
[2]
  weight gain: slightly smaller than that in the other groups
